Laboratory results reported in ChEMBL document CHEMBL3301361, “Experimental in vitro DMPK and physicochemical data on a set of publicly disclosed compounds”.
≈ marks a conversion by molar mass, not a printed value.

Legend:
[1] = physchem; conditions: octan-1-ol/water
[2] = in vitro; conditions: hepatocytes
[3] = in vitro; conditions: human, plasma, PPB
[4] = in vitro; conditions: SD, HW or BN, rat, plasma
[5] = physchem; conditions: pH 7.4 buffer
[6] = in vitro; conditions: human

Compound	logD ([1]; pH 7.4, LogD7.4)	hepatocyte CLint [2]	other results
O=C([C@@H]1CCCN1)N1CCN(c2nc(NCc3ccc(Cl)cc3Cl)c3cccnc3n2)CC1	2.41	6 µL/min/1e6 cells	
Cc1cc(NC(=O)Nc2cccc3ccccc23)no1		95.5 µL/min/1e6 cells	
COC1=CC(c2cc3ccccc3[nH]2)=N/C1=C\c1[nH]c(C)cc1C [OBATOCLAX]	2.55	22.4 µL/min/1e6 cells	
N[C@@H](C(=O)N[C@@H]1C(=O)N2C(C(=O)O)=C(Cl)CC[C@H]12)c1ccccc1 [LORACARBEF ANHYDROUS]		< 3 µL/min/1e6 cells	
Cc1ccccc1-c1c(C(=O)O)n(CCCOc2cccc3ccccc23)c2ccccc12	3.89	123 µL/min/1e6 cells	
O=C1NC(=O)C(c2ccccc2)(c2ccccc2)N1 [PHENYTOIN]	2.41		fraction unbound at 5 h [3]: 0.129; fraction unbound at 5 h [4]: 0.179; solubility thermodynamic [5]: 79.4 µM (≈ 20 µg/mL)
Cc1cccc2c(O)nc(-c3ccc(C(F)(F)F)cc3)nc12		45.7 µL/min/1e6 cells	
Cn1sc(=O)c2cc(S(=O)(=O)NC3CC3)ccc21	1.3	> 150 µL/min/1e6 cells	
NCCc1ccc(O)c2nc(O)sc12		> 150 µL/min/1e6 cells	logD ([1]; pH 7.4): 0.33
CN(C)CC[C@H](CSc1ccccc1)Nc1ccc(S(=O)(=O)NC(=O)c2ccc(N3CCN(Cc4ccccc4-c4ccc(Cl)cc4)CC3)cc2)cc1[N+](=O)[O-] [ABT 737]		9.55 µL/min/1e6 cells	
COc1cc2cc(-c3ccc(O)cc3O)nc(C)c2cc1OC		> 150 µL/min/1e6 cells	
CCC(C)(C)C[C@H](c1ccc(C(=O)O)c(Oc2cccc(Cl)c2)c1)N1CCC[C@H](n2cc(C)c(=O)[nH]c2=O)C1	1.37	117 µL/min/1e6 cells	
Oc1nc2c(O)ccc(CCNCCCSCCOCCc3cccc4ccccc34)c2s1			microsomal CLint ([6]; liver microsomes): 36 µL/min/mg; fraction unbound at 5 h [4]: 0.0122
CCCCC[C@H](c1ccc(C(=O)O)c(Oc2cccc(Br)c2)c1)N1CCC[C@H](n2cc(C)c(=O)[nH]c2=O)C1	1.69	30.2 µL/min/1e6 cells	
COc1ccc2ncc(F)c(CCN3CCC(NCc4ccc5c(n4)NC(=O)CO5)CC3)c2n1	1.78	39.8 µL/min/1e6 cells	
C[C@H]1Cc2c([nH]c3cc(Cl)c(F)cc23)[C@@]2(N1)C(=O)Nc1ccc(Cl)cc12 [CIPARGAMIN]		8.71 µL/min/1e6 cells	
Cc1ccc(S(=O)(=O)Nc2c(C(=O)N[C@@H](C)C(C)(C)C)c(C)nn2C2CCC2)cc1	1.57		fraction unbound at 5 h [3]: 0.0183; microsomal CLint ([6]; microsomes): 11 µL/min/mg; fraction unbound at 5 h [4]: 0.0209
CC[C@@]1(O)C(=O)OCc2c1cc1n(c2=O)Cc2cc3c(CN(C)C)c(O)ccc3nc2-1 [TOPOTECAN]	0.31	3.24 µL/min/1e6 cells	

Compound	logD ([1]; pH 7.4, LogD7.4)	hepatocyte CLint [2]	other results
Nc1ccc2c(-c3ccncc3)c(-c3ccc(F)cc3)[nH]c2n1		117 µL/min/1e6 cells	
CC1(C)CCC(c2ccc(Cl)cc2)=C(CN2CCN(c3ccc(C(=O)NS(=O)(=O)c4ccc(N[C@H](CCN5CCOCC5)CSc5ccccc5)c(S(=O)(=O)C(F)(F)F)c4)cc3)CC2)C1 [NAVITOCLAX]	0.64	9.77 µL/min/1e6 cells	
O=C(Nc1cccc(-c2nnn[nH]2)c1)c1cccc2[nH]cnc12	-0.05	44.7 µL/min/1e6 cells	
CN(C)C(=O)[C@H](O)[C@H](Cc1ccccc1)NC(=O)c1cc2cc(Cl)ccc2[nH]1	3.6		fraction unbound at 5 h [3]: 0.0219; fraction unbound at 5 h [4]: 0.0268; solubility thermodynamic [5]: 22.9 µM (≈ 9.16 µg/mL)
CCC(=C(c1ccc(O)cc1)c1ccc(OCCN(C)C)cc1)c1ccccc1		56.2 µL/min/1e6 cells	
CC1(C)CNC(=O)c2sc(N3CCOCC3)nc2C1	1.29		fraction unbound at 5 h [3]: 0.701; fraction unbound at 5 h [4]: 0.517; solubility thermodynamic [5]: 251 µM (≈ 70.7 µg/mL)
O=C(Nc1cccc(-c2nnn[nH]2)c1)c1cc(F)cc2nc[nH]c12	0.29	67.6 µL/min/1e6 cells	
Cc1nc(C(=O)N2CCOC3(CCN(Cc4ccc(Cl)cc4)CC3)C2)cs1	2.17	47 µL/min/1e6 cells	
COc1ccc2ncc(=O)n(CCN3CCC(NCc4cc5c(cn4)OCCO5)CC3)c2c1	0.93	> 150 µL/min/1e6 cells	
CCNC(=O)c1ccc(C)c(-n2cnc3ccc(N4CCN(C)CC4)cc3c2=O)c1	1.47	< 3 µL/min/1e6 cells	
CC(C(=O)O)c1cccc(Oc2ccccc2)c1 (centres undefined) [FENOPROFEN]	0.71		microsomal CLint ([6]; liver microsomes): 10.2 µL/min/mg; fraction unbound at 5 h [4]: 0.0146
C[C@@](C(=O)O[C@H]1C[N+]2(CC(=O)Nc3ccncn3)CCC1CC2)(c1ccccc1)N1CCCCC1		39 µL/min/1e6 cells	
COc1ccc(C)c(Nc2ncc3ccn(-c4ccccn4)c3n2)c1		83.2 µL/min/1e6 cells	
Cc1c(C(=O)NC2C3CC4CC(C3)CC2C4)cnn1-c1ccc(C(=O)O)cc1 (centres undefined)		< 3 µL/min/1e6 cells	
C[C@@H]1Cc2c([nH]c3cc(Cl)c(F)cc23)[C@]2(N1)C(=O)Nc1ccc(Cl)cc12		7.24 µL/min/1e6 cells	
O=c1cc(-c2ccc(Br)cc2)oc2ccccc12		< 3 µL/min/1e6 cells	
O=C(O)CN1C(=O)C(=O)c2ccccc21		26.9 µL/min/1e6 cells	
CN(C)CCC=C1c2ccccc2C=Cc2ccccc21 [CYCLOBENZAPRINE]	2.83		fraction unbound at 5 h [3]: 0.0784; microsomal CLint ([6]; microsomes): 4.07 µL/min/mg; fraction unbound at 5 h [4]: 0.117
